Columns and labels:
[1] = molecular target: Tyrosine-protein kinase CSK (Homo sapiens) (UniProt P41240); experiment: Inhibition of full length human N-terminal GST-tagged CSK (1 to 450 residues) expressed in baculovirus expression system using fluorescence labelled srctide as substrate at 50 times IC50 by electrophoretic mobility shift assay relative to control
[2] = molecular target: T1, Ephrin type-B receptor 4 (Homo sapiens) (UniProt P54760); experiment: Inhibition of human N-terminal GST-tagged EPHB4 cytoplasmic domain (577 to 987 residues) expressed in baculovirus expression system using fluorescence labelled Blk/Lyntide as substrate at 50 times IC50 by electrophoretic mobility shift assay relative to control
T1 sequence (whole entry): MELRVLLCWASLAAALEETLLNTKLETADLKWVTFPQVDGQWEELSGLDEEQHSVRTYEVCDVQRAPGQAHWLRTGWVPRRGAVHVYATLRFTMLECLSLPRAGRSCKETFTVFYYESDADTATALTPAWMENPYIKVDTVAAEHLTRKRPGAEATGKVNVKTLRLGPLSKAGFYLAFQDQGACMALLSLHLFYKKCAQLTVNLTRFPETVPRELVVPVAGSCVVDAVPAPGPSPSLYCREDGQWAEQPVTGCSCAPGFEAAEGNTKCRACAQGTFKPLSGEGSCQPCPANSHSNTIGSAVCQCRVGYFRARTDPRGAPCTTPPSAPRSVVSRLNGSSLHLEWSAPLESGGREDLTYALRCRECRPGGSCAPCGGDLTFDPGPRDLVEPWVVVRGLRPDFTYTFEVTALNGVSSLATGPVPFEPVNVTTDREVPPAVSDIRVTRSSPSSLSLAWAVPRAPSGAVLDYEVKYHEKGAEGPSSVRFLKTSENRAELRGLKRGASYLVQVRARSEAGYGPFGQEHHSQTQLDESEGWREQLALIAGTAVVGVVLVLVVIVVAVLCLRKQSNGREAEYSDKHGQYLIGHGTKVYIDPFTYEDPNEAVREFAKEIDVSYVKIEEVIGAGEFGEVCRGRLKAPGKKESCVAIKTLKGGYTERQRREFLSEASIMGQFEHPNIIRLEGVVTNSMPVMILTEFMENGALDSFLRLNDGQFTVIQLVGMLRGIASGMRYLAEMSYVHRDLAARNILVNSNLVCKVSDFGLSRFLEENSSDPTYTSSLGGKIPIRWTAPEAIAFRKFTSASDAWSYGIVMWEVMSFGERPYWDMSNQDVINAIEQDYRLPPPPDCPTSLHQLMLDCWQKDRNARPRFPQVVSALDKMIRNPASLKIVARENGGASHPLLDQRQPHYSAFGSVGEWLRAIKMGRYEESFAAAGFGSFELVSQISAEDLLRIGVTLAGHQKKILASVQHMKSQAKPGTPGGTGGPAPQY

[3] = molecular target: Fibroblast growth factor receptor 1 (Homo sapiens) (UniProt P11362); experiment: Inhibition of human N-terminal GST-tagged FGFR1 cytoplasmic domain (398 to 822 residues) expressed in baculovirus expression system using fluorescence labelled CSKtide as substrate at 50 times IC50 by electrophoretic mobility shift assay relative to control
Sequence of Fibroblast growth factor receptor 1 (Homo sapiens) (P11362 22-822 limits assumed): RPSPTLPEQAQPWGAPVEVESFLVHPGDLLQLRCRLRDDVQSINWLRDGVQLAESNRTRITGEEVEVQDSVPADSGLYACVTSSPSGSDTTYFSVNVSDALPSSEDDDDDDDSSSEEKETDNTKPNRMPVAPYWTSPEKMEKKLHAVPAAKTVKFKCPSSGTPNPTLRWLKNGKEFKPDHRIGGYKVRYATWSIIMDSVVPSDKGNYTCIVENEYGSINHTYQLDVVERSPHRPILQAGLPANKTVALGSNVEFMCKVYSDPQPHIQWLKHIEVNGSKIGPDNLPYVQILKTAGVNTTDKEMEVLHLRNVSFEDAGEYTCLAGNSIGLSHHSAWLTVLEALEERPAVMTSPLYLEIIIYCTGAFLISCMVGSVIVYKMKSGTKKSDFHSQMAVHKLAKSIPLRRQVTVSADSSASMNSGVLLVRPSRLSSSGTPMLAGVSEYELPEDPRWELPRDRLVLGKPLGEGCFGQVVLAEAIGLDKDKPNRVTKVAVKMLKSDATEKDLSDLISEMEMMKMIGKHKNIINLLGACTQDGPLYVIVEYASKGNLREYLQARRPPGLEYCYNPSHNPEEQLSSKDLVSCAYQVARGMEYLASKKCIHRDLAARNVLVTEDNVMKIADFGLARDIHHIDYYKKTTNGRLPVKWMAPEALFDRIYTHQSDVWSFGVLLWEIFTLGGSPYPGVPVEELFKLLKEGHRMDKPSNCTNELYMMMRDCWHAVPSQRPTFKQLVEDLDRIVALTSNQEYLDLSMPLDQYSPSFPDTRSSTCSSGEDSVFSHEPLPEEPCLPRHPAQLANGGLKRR

[4] = molecular target: Platelet-derived growth factor receptor alpha (Homo sapiens) (UniProt P16234); experiment: Inhibition of human N-terminal GST-tagged PDGFRalpha cytoplasmic domain (550 to 1089 residues) expressed in baculovirus expression system using fluorescence labelled CSKtide as substrate at 50 times IC50 by electrophoretic mobility shift assay relative to control
Sequence of Platelet-derived growth factor receptor alpha (Homo sapiens) (P16234 whole entry, the tested form may be a part): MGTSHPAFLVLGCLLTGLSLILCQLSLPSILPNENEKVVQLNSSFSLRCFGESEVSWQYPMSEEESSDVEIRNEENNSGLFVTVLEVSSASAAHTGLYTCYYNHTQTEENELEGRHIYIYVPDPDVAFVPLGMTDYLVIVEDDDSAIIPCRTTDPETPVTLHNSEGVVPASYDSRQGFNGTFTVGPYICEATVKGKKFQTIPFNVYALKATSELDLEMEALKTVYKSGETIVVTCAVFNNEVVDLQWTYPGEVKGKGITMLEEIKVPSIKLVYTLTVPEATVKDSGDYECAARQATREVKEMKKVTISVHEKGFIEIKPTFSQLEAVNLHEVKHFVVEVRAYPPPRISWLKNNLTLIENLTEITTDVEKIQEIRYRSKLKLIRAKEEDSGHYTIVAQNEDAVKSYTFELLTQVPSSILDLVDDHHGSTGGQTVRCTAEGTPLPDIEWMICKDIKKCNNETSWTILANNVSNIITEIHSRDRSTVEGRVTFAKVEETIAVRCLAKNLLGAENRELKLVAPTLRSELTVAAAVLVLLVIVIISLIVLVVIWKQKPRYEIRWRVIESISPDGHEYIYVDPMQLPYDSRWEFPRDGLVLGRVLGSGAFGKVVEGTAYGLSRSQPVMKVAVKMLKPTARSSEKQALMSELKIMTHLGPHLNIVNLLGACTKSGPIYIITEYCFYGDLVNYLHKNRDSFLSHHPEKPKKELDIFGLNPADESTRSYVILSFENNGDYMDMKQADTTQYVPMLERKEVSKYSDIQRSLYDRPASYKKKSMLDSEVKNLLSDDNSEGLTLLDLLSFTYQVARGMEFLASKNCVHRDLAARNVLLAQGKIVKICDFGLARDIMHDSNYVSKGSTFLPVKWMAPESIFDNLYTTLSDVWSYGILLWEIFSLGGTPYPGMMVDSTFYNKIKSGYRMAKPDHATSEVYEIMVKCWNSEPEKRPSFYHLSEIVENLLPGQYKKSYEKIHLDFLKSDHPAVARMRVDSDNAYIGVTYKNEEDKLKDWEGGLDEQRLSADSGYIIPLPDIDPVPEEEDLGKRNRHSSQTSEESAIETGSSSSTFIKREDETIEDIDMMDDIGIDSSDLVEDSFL

[5] = molecular target: Proto-oncogene tyrosine-protein kinase Src (Homo sapiens) (UniProt P12931); experiment: Inhibition of full length human N-terminal GST-tagged SRC (1 to 536 residues) expressed in baculovirus expression system using fluorescence labelled srctide as substrate at 50 times IC50 by electrophoretic mobility shift assay relative to control
Sequence of Proto-oncogene tyrosine-protein kinase Src (Homo sapiens) (P12931 2-536 limits assumed): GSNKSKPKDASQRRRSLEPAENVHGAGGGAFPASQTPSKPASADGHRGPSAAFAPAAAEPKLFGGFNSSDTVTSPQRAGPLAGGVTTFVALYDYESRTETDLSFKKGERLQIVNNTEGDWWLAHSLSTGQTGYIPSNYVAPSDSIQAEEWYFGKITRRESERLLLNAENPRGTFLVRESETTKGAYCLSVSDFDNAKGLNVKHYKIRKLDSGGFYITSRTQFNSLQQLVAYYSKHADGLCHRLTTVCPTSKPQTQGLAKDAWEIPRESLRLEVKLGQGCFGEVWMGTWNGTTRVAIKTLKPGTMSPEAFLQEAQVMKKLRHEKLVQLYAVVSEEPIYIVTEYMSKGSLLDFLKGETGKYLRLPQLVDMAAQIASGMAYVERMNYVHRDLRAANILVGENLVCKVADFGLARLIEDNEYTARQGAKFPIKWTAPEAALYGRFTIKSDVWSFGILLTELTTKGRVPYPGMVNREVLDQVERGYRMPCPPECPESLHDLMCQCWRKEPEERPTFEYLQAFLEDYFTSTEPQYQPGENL

[6] = molecular target: Mitogen-activated protein kinase 14 (Homo sapiens) (UniProt Q16539); experiment: Inhibition of human N-terminal GST-tagged p38alpha (9 to 352 residues) expressed in Escherichia coli using fluorescence labelled modified Erktide as substrate at 50 times IC50 by electrophoretic mobility shift assay relative to control
Sequence of Mitogen-activated protein kinase 14 (Homo sapiens) (Q16539 whole entry, the tested form may be a part): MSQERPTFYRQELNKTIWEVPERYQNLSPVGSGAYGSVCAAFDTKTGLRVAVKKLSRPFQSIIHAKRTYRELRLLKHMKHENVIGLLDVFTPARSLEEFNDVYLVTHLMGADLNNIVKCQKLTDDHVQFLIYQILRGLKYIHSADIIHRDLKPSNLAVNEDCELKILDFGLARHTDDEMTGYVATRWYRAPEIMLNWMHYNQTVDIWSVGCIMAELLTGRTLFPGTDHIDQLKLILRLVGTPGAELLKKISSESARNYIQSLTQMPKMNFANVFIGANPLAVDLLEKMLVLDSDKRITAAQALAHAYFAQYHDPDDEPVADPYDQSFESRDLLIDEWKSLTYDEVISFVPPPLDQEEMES

[7] = molecular target: T2, Serine/threonine-protein kinase D2 (Homo sapiens) (UniProt Q9BZL6); experiment: Inhibition of full length human N-terminal GST-tagged PKD2 (1 to 878 residues) expressed in baculovirus expression system using fluorescence labelled GS peptide substrate at 50 times IC50 by electrophoretic mobility shift assay relative to control
T2 sequence (whole entry): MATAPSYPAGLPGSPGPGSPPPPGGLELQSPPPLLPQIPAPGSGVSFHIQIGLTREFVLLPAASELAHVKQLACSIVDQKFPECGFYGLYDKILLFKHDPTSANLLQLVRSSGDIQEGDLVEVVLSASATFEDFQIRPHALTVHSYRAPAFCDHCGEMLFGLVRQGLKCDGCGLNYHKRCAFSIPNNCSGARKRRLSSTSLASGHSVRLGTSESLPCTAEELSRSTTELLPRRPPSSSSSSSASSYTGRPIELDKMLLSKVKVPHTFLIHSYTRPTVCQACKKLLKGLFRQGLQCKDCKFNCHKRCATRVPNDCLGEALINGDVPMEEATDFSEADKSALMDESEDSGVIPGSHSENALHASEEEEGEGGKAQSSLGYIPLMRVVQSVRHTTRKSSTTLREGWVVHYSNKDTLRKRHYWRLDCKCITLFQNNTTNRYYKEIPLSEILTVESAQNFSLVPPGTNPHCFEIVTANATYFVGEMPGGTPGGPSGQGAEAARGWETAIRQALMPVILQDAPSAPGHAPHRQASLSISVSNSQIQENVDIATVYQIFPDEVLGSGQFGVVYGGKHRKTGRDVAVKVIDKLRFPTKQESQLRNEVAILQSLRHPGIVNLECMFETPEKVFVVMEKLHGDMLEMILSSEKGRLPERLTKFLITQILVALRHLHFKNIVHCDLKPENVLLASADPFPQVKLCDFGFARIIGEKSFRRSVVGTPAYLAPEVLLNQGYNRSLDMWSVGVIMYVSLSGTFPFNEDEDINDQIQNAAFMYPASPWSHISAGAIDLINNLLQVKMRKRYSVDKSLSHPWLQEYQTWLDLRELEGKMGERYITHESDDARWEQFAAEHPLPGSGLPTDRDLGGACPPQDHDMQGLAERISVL

Sequence of Tyrosine-protein kinase CSK (Homo sapiens) (P41240 2-450 limits assumed): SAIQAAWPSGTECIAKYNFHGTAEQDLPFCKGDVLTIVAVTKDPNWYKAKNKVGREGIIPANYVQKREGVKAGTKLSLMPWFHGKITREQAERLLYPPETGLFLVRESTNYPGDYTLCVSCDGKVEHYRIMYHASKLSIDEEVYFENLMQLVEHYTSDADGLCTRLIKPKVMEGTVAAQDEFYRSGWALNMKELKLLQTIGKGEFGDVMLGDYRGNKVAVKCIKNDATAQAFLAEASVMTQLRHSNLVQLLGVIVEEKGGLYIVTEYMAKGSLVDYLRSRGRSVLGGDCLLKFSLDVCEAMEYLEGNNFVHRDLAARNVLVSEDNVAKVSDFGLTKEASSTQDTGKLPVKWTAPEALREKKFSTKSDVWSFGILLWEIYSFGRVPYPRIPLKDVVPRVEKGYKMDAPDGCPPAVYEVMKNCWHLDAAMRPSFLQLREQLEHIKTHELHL

Compound	inhibition [1]	inhibition [2]	inhibition [3]	inhibition [4]	inhibition [5]	inhibition [6]	inhibition [7]
O=C(Nc1ccccc1)c1n[nH]c2ccccc12	-0.5%	0.4%	17%	26.3%	6.1%	6.9%	1.3%
O=C(Nc1ccc(C(=O)N2CCN(c3ccccc3)CC2)cc1)c1n[nH]c2ccccc12	-5%	-1.2%	6.3%	47.2%	2.5%	-1.8%	5.7%
O=C(Nc1ccc(CN2CCN(c3ccccc3)CC2)cc1)c1n[nH]c2ccccc12	-4.3%	-0.4%	-1%	9.8%	0.6%	-2.6%	4.5%

— ChEMBL document CHEMBL3792292, “Development of a potent and selective FLT3 kinase inhibitor by systematic expansion of a non-selective fragment-screening hit” (Bioorg Med Chem Lett, 2016)
